Legend:
Type in all cases: cell-based, human
[1] = tested on: MCF7 cells; assay: MTT cell viability assay, MCF7; details: for IC50: MTT
Protocol: (§1) The assay was performed as previously described.

[2] = tested on: HT-29 cells; assay: MTT cell viability assay, HT-29; details: for IC50: MTT
Protocol: as §1

[3] = tested on: HeLaWT, HT-29, MCF7 and MCF-12A cells; assay: MTT cell viability assay, statement for all studied cells; details: for IC50: Homo sapiens, all studied cells, applied concentration range, time not specified
Protocol: as §1

[4] = tested on: MCF-12A cells; assay: MTT cell viability assay, non-tumorigenic MCF-12A
Protocol: as §1

[5] = tested on: HeLaWT cells; assay: MTT cell viability assay, HeLaWT
Protocol: as §1

[6] = tested on: HT-29 cells; assay: TUNEL assay, HT-29; details: HT-29, 1 × IC50, 24 h, non-statistically significant
Protocol: (§2) To determine the percentage of apoptotic cells, the TUNEL assay was performed as described elsewhere. TUNEL staining for the detection and quantification of apoptosis at the single-cell level was performed using an in situ cell death detection kit (Roche, Mannheim, Germany) according to the manufacturer’s protocol. Briefly, HT-29, HeLaWT and MCF7 cells (5 × 10^5/well) were seeded into 6-well plates and cultured overnight before exposure to different concentrations of tested compounds for 24 h. For TUNEL labeling, cells were harvested, fixed, permeabilized and labeled with the TUNEL reaction mixture (enzyme and label solutions) for 1 h at 37 °C in the dark. Negative controls were created by omitting the terminal deoxynucleotidyl enzyme and adding the same volume of the label solution. The cells were analyzed using a FACScan flow cytometer (Becton–Dickinson, Franklin Lakes, NJ, USA).

[7] = tested on: HT-29 cells; assay: Cell cycle analysis (propidium iodide flow cytometry), HT-29
Protocol: (§3) To analyze the influence of the chosen compounds on the cell cycle, a flow cytometry analysis using propidium iodide was performed as previously described. The HT-29, MCF7 and HeLaWT cells (3 × 10^5 cells) were incubated overnight to reach sedimentation and then were treated with 0.5 and 1 × IC50 of KS1, KS2, KS5, KS6, KS7 and KS8, or Doxorubicin (positive control). Cell cycle analysis was performed after incubation for 24 h. Then, cells were harvested, washed twice with phosphate-buffered saline (PBS), and incubated with a solution of 1% saponin, 50 µg/mL propidium iodide and 10 mg/mL of RNase A (Sigma-Aldrich, Schnelldorf, Germany) in PBS for 1 h at 37 °C. DNA content was analyzed by flow cytometry at the […] wavelength of 488 nm using FACScan (Becton–Dickinson, Franklin Lakes, NJ, USA). The relative proportions of cells in the G1/G0, S and G2/M phases of the cell cycle were determined from the obtained data. Three separate experiments in triplicates were performed for each cell line.

[8] = tested on: HeLaWT cells; assay: Cell cycle analysis (propidium iodide flow cytometry), HeLaWT
Protocol: as §3

[9] = tested on: HeLaWT cells; assay: TUNEL assay, HeLaWT
Protocol: as §2

[10] = tested on: MCF7 cells; assay: Cell cycle analysis (propidium iodide flow cytometry), MCF7; details: MCF7, both applied concentrations (0.5 × IC50 and 1 × IC50), 24 h
Protocol: as §3

[11] = Homo sapiens, MCF-12A, 24 h, MTT
[12] = Homo sapiens, MCF-12A, 48 h, MTT
[13] = Homo sapiens, MCF-12A, 72 h, MTT
[14] = Homo sapiens, non-cancerous MCF-12A cells, applied concentration range, time not specified

SMILES	IC50 ([1]; Homo sapiens, MCF7, 24 h)	IC50 ([1]; Homo sapiens, MCF7, 48 h)	IC50 ([1]; Homo sapiens, MCF7, 72 h)	IC50 ([2]; Homo sapiens, HT-29, 24 h)	IC50 ([2]; Homo sapiens, HT-29, 48 h)	IC50 ([2]; Homo sapiens, HT-29, 72 h)	IC50 [3]	IC50 [4, 11]	IC50 [4, 12]	IC50 [4, 13]	IC50 [4, 14]	IC50 ([5]; Homo sapiens, 24 h)	IC50 ([5]; Homo sapiens, 48 h)	IC50 ([5]; Homo sapiens, 72 h)	further results
COC(=O)C12CCC(C)(C)CC1C1=CCC3C4(C)CCC(OC(=O)CCC(=O)Oc5ccc(/C=C/C(O)=C/C(=O)/C=C/c6ccc(O)c(OC)c6)cc5OC)C(C)(C)C4CCC3(C)C1(C)CC2 (stereo not shown) [KS3, Curcumin mono-oleanoyl hydrogen succinate methyl ester]	> 100 µM	> 100 µM	> 100 µM	> 100 µM	> 100 µM	> 100 µM	> 100 µM	> 100 µM	> 100 µM	> 100 µM	> 100 µM	> 100 µM	> 100 µM	> 100 µM	–
CC1(C)CCC2(C(=O)O)CCC3(C)C(=CCC4C5(C)CCC(OC(=O)CCC(=O)O)C(C)(C)C5CCC43C)C2C1 (stereo not drawn) [KS1, 4-{[(3 β )-28-hydroksy-28-oxoolean-12-en-3-yl]oxy}-4-oxobutanoic acid]	–	–	–	–	–	–	–	–	–	–	–	–	–	–	IC50 ([1]; MCF7, 24 h): > 100 µM; IC50 ([1]; MCF7, 48 h): 34.4 ± 2.2 µM; IC50 ([1]; MCF7, 72 h): 22.5 ± 0.9 µM; cytotoxic activity (in words) ([1]; MCF7, MTT, summary of Table 1): quite active; IC50 ([2]; HT-29, 24 h): > 100 µM; IC50 ([2]; HT-29, 48 h): > 100 µM; IC50 ([2]; HT-29, 72 h): > 100 µM; cytotoxic activity (in words) ([2]; HT-29, MTT, summary of Table 1): inactive; IC50 ([4]; MCF-12A, 24 h, MTT): > 100 µM; IC50 ([4]; MCF-12A, 48 h, MTT): 47.7 ± 2.1 µM; IC50 ([4]; MCF-12A, 72 h, MTT): 42.1 ± 1.9 µM; IC50 ([5]; 24 h): > 100 µM; IC50 ([5]; 48 h): > 100 µM; IC50 ([5]; 72 h): > 100 µM; cytotoxic activity (in words) ([5]; summary of Table 1): inactive
COC(=O)C12CCC(C)(C)CC1C1=CCC3C4(C)CCC(OC(=O)CCC(=O)Oc5ccc(/C=C/c6cc(/C=C/c7ccc(O)c(OC)c7)n[nH]6)cc5OC)C(C)(C)C4CCC3(C)C1(C)CC2 (stereo not shown) [KS8, Curcumin pyrazole mono-oleanoyl hydrogen succinate methyl ester]	44.3 ± 2.2 µM	33.2 ± 1.7 µM	29.9 ± 1.5 µM	20.6 ± 1 µM	17.9 ± 0.9 µM	17.3 ± 0.9 µM	–	62.7 ± 3.1 µM	43.4 ± 2.2 µM	42.3 ± 2.5 µM	–	53.4 ± 2.7 µM	36.9 ± 1.8 µM	25.6 ± 1.2 µM	–
COC(=O)C12CCC(C)(C)CC1C1=CCC3C4(C)CCC(OC(=O)CCC(=O)Oc5ccc(/C=C/c6cc(/C=C/c7ccc(O)c(OC)c7)no6)cc5OC)C(C)(C)C4CCC3(C)C1(C)CC2 (stereo not shown) [KS7, Curcumin isoxazole mono-oleanoyl hydrogen succinate methyl ester]	> 100 µM	> 100 µM	> 100 µM	> 100 µM	> 100 µM	> 100 µM	> 100 µM	> 100 µM	> 100 µM	> 100 µM	> 100 µM	> 100 µM	> 100 µM	> 100 µM	cytotoxic activity (in words) ([3]; all cell lines, MTT, summary of Table 1): inactive
COc1cc(/C=C/c2cc(/C=C/c3ccc(OC(=O)CCC(=O)OC4CCC5(C)C(CCC6(C)C5CC=C5C7CC(C)(C)CCC7(C(=O)O)CCC56C)C4(C)C)c(OC)c3)on2)ccc1O (stereo not shown) [KS5, Curcumin isoxazole mono-oleanoyl hydrogen succinate]	80.8 ± 4 µM	45.6 ± 2.3 µM	37.8 ± 1.9 µM	29 ± 1.4 µM	23.2 ± 1.2 µM	21.5 ± 1.1 µM	–	83.2 ± 3.1 µM	68.7 ± 2.4 µM	49.9 ± 1.6 µM	–	70.1 ± 3.5 µM	51.2 ± 2.5 µM	27.3 ± 1.4 µM	–
COc1cc(/C=C/C(=O)/C=C(O)/C=C/c2ccc(OC(=O)CCC(=O)OC3CCC4(C)C(CCC5(C)C4CC=C4C6CC(C)(C)CCC6(C(=O)O)CCC45C)C3(C)C)c(OC)c2)ccc1O (stereo not shown) [KS4, Curcumin mono-oleanoyl hydrogen succinate]	> 100 µM	> 100 µM	> 100 µM	> 100 µM	> 100 µM	> 100 µM	> 100 µM	> 100 µM	> 100 µM	> 100 µM	> 100 µM	> 100 µM	> 100 µM	> 100 µM	–
COc1cc(/C=C/C(=O)CC(=O)/C=C/c2ccc(O)c(OC)c2)ccc1O [KS2, curcumin]	15.6 ± 0.8 µM	14.6 ± 0.6 µM	7.5 ± 0.4 µM	25.2 ± 1.3 µM	13.9 ± 0.7 µM	11.1 ± 0.6 µM	–	75.6 ± 2.5 µM	46.4 ± 2 µM	42 ± 1.6 µM	–	57.2 ± 2.2 µM	28.7 ± 1.1 µM	16.2 ± 0.65 µM	increase of apoptosis (TUNEL) [6]: 10%; increase of apoptotic cells (cell cycle analysis) ([7]; HT-29, 24 h, in comparison to control untreated cells): 7%; effect on cell cycle phases ([7]; HT-29, both applied concentrations (0.5 × IC50 and 1 × IC50), 24 h): a decrease in the G0/G1 phase, and an increase in the G2/M phase; effect on cell cycle phases ([8]; 0.5 × IC50, 24 h): a decrease in the G0/G1 phase, and an increase in the G2/M phase; effect on cell cycle phases ([8]; 1 × IC50, 24 h): a decrease in the number of cells in the G0/G1 phase; increase of apoptotic cells (cell cycle analysis) ([8]; 1 × IC50, 24 h): up to 10%; number of apoptotic cells (TUNEL) ([9]; 0.5 × IC50, 24 h): 30%; number of apoptotic cells (TUNEL) ([9]; 1 × IC50, 24 h): 80%; effect on cell cycle phases [10]: a decrease in the G0/G1 phase, and an increase in the G2/M phase
COc1cc(/C=C/c2cc(/C=C/c3ccc(OC(=O)CCC(=O)OC4CCC5(C)C(CCC6(C)C5CC=C5C7CC(C)(C)CCC7(C(=O)O)CCC56C)C4(C)C)c(OC)c3)[nH]n2)ccc1O (stereo not shown) [KS6, Curcumin pyrazole mono-oleanoyl hydrogen succinate]	69.1 ± 3.4 µM	25.9 ± 1.3 µM	20.2 ± 1 µM	94.4 ± 4.7 µM	51.9 ± 2.6 µM	26 ± 1.3 µM	–	> 100 µM	54.3 ± 2.7 µM	44.6 ± 1.9 µM	–	77.1 ± 3.8 µM	45 ± 2.3 µM	25.9 ± 1.3 µM	–
